In one assay the test system is S. aureus MRSA COL. Kind of assay: MIC broth microdilution (NCCLS). The conditions noted are these: S. aureus MRSA COL. It counts as cell-based, Staphylococcus aureus. A digest of the protocol: (§1)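 Cultures grew 24 h at 35° C in MHBCA from a 10^5-10^6 CFU/ml inoculum against 2-fold compound dilutions, following NCCLS guidance.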
Another assay deals with E. faecium ATCC 35667. Kind of assay: MIC broth microdilution (NCCLS). It counts as cell-based, Enterococcus faecium. The conditions noted are these: Enterococcus faecium, ATCC35667, E. faecium ATCC 35667; read-out: MIC. The essentials:
(§2)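 NCCLS broth microdilution; inoculum 10^5-10^6 CFU/ml; 2-fold serial dilutions; 35° C, 24 h; A650 plus visual read. Media: MHBCA (S. saprophyticus, E. faecium), MHBCA + 2% laked horse blood (Listeria), HTM (Haemophilus), the last two under 5% CO2.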
(In broth dilution the organism is exposed to a series of concentrations in liquid medium.)

The subject of the next assay is A. baumannii ATCC 19606. The assay is described as follows: MIC broth microdilution (NCCLS). It counts as cell-based, Acinetobacter baumannii. The conditions noted are these: Acinetobacter baumannii, ATCC19606, read-out: MIC. A digest of the protocol: (§3)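 Susceptibility by NCCLS microdilution: checked inoculum 10^5-10^6 CFU/ml, 24 h at 35° C, and growth assessed at 650 nm and by eye. Haemophilus was tested in HTM medium and Listeria with laked horse blood, each incubated under 5% CO2.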

Assay [1] relates to Y. enterocolytica ATCC 23715. Kind of assay: MIC broth microdilution (NCCLS). The conditions noted are these: Yersinia, ATCC23715, read-out: MIC. Format: cell-based, Yersinia enterocolytica. A digest of the protocol: as §3
The next assay has as its system S. aureus ATCC 29213. Kind of assay: MIC broth microdilution (NCCLS). Format: cell-based, Staphylococcus aureus. The note with it: Staphylococcus aureus, ATCC29213; S. aureus ATCC 29213; read-out: MIC.
The subject of a further assay is E. faecalis ATCC 29212. Kind of assay: MIC broth microdilution (NCCLS). It counts as cell-based, Enterococcus faecalis. The note with it: E. faecalis ATCC 29212.
The test system of the next assay is M. smegmatis ATCC 19420. Kind of assay: MIC broth microdilution (NCCLS), fastidious bacteria. Format: cell-based, Mycobacterium smegmatis. The conditions noted are these: Mycolicibacterium smegmatis, ATCC19420, read after 48 hours. Here is the method:
Minimal Inhibitory Concentration (MIC) Determination. Bacteria (primary strain panel, TABLE 1). Susceptibility tests were performed following the recommendations from the National Committee for Clinical Standards (NCCLS). The MICs were determined by a broth microdilution technique using a final volume of 100 μl of cation-adjusted Mueller Hinton Broth (MHBCA) and a bacterial inoculum of 10^5-10^6 Colony Forming Units (CFU)/ml. The inocula were verified and precisely determined by applying 10-μl drops of 10-fold dilutions onto Triptic Soy Agar plates. The CFU were counted after an incubation of 24 h at 35° C. Any experiment showing an inoculum that was more or less than 10^5-10^6 CFU/ml was rejected. Control antibiotics and test compounds were prepared at a concentration equivalent to 2-fold the highest desired final concentration. Compounds were then diluted directly in the 96-well microtiter plates by serial 2-fold dilutions using a multichannel pipette. Microtiter plates were incubated during 24 h at 35° C. and growth was recorded by using a microtiterplate reader at 650 nm as well as by visual observation. The MIC was defined as the lowest concentration of compound yielding no visible growth. […] Fastidious bacteria. The medium used for Listeria monocytogenes, Neisseria meningitidis, and Campylobacter jejuni was MHBCA containing 2% laked horse blood. The medium used for Haemophilus influenzae and Branhamella (Moraxella) catarrhalis was HTM as recommended by the NCCLS. Cultures of these fastidious bacteria were incubated at 35° C. in a 5% CO2 atmosphere. […] The medium used for Bacteroides fragilis was Wilkins Chalgren broth and growth was allowed under an anaerobic atmosphere at 35° C. for 48 hours.

The next assay relates to MRSA strain Sa211c. The assay is described as follows: MIC broth microdilution, antibiotic resistant strain panel. It counts as cell-based, Staphylococcus aureus. The note with it: Staphylococcus aureus; multi-resistant MRSA strain Sa211c; read-out: MIC. A digest of the protocol:
as §1

The next assay deals with MRSA strain Sa249c. The description is as above. It counts as cell-based, Staphylococcus aureus. The note with it: Staphylococcus aureus; multi-resistant MRSA strain Sa249c; read-out: MIC. A digest of the protocol:
as §1

The subject of another assay is MRSA strain Sa224c. The assay is described as above. It counts as cell-based, Staphylococcus aureus. The note with it: Staphylococcus aureus; multi-resistant MRSA strain Sa224c; read-out: MIC. A digest of the protocol: as §1
In the next assay the test system is MRSA strain Sa234c. Described as above. Format: cell-based, Staphylococcus aureus. The note with it: Staphylococcus aureus; multi-resistant MRSA strain Sa234c; read-out: MIC. The essentials:
as §1

A further assay deals with MRSA strain Sa212c. The description is as above. Format: cell-based, Staphylococcus aureus. The note with it: Staphylococcus aureus; multi-resistant MRSA strain Sa212c; read-out: MIC. The essentials: as §1
The subject of the next assay is MRSA strain Sa248c. Described as above. Format: cell-based, Staphylococcus aureus. The conditions noted are these: Staphylococcus aureus; multi-resistant MRSA strain Sa248c; read-out: MIC. A digest of the protocol:
as §1

The next assay deals with MRSA strain Sa228c. Described as above. Format: cell-based, Staphylococcus aureus. The conditions noted are these: Staphylococcus aureus; multi-resistant MRSA strain Sa228c; read-out: MIC. A digest of the protocol: as §1
The subject of another assay is MRSA strain Sa220c. The assay is described as above. It counts as cell-based, Staphylococcus aureus. The conditions noted are these: Staphylococcus aureus; multi-resistant MRSA strain Sa220c; read-out: MIC. A digest of the protocol: as §1
The next assay has as its system MRSA strain Sa253c. The assay is described as above. The note with it: Staphylococcus aureus; multi-resistant MRSA strain Sa253c; read-out: MIC. Format: cell-based, Staphylococcus aureus. The essentials:
as §1

Assay [2] has as its system S. saprophyticus ATCC 15305. The assay is described as follows: MIC broth microdilution (NCCLS). Format: cell-based, Staphylococcus saprophyticus. The conditions noted are these: Staphylococcus saprophyticus, ATCC15305; S. saprophyticus ATCC 15305; read-out: MIC. A digest of the protocol: as §2
Setting [3] is: Staphylococcus aureus, MRSA, read-out: MIC.
Setting [4] is: Enterococcus faecalis, ATCC29212, read-out: MIC.

Converted amounts (≈) assume the structure as drawn. Like-named read-outs stand apart in the source and are kept apart here.

Consider `O=[N+]([O-])c1ccc(C=Cc2nc(Nc3ccc(O)cc3)c3cc(F)ccc3n2)o1` [Compound V, 6-fluoro-2-[2-(5-nitro-2-furyl)vinyl]-4-(p-hydroxyanilino)-quinazoline], for which the minimum inhibitory concentration (MIC) (commonly the lowest concentration found to suppress growth) in the assay on S. aureus MRSA COL (setting [3]) is 0.015 µg/mL (≈ 0.0382 µM); with E. faecium ATCC 35667, 0.06 µg/mL (≈ 0.153 µM); in the assay with A. baumannii ATCC 19606, 1 to 2 µg/mL (≈ 2.55 to 5.1 µM); in assay [1], 0.25 µg/mL (≈ 0.637 µM); in the assay on S. aureus ATCC 29213, 0.03 to 0.06 µg/mL (≈ 0.0765 to 0.153 µM); with E. faecalis ATCC 29212 (listed as Example I compound V) it was 0.03 µg/mL (≈ 0.0765 µM). Further, the minimal inhibitory concentration (MIC) in the assay on E. faecalis ATCC 29212 (setting [4]) was 0.03 µg/mL (≈ 0.0765 µM); in the assay on M. smegmatis ATCC 19420, 0.06 µg/mL (≈ 0.153 µM); with MRSA strain Sa211c it was at most 0.06 µg/mL; with MRSA strain Sa249c it was at most 0.06 µg/mL; in the assay on MRSA strain Sa224c, at most 0.06 µg/mL; in the assay on MRSA strain Sa234c it was at most 0.06 µg/mL. The minimal inhibitory concentration (MIC) with MRSA strain Sa212c is 0.125 µg/mL (≈ 0.319 µM); with MRSA strain Sa248c, at most 0.06 µg/mL; in the assay with MRSA strain Sa228c it was at most 0.06 µg/mL; in the assay with MRSA strain Sa220c, at most 0.06 µg/mL; in the assay on MRSA strain Sa253c, at most 0.06 µg/mL; in assay [2], 0.015 to 0.03 µg/mL (≈ 0.0382 to 0.0765 µM).
As for `O=C1CN(/N=C/c2ccc([N+](=O)[O-])o2)C(=O)N1` [Nitrofurantoin], the MIC was 8 to 16 µg/mL against S. aureus MRSA COL; 16 µg/mL (≈ 67.2 µM) in the assay with S. aureus MRSA COL (setting [3]); 64 µg/mL (≈ 269 µM) with E. faecium ATCC 35667; 128 µg/mL (≈ 537 µM) with A. baumannii ATCC 19606; 64 µg/mL (≈ 269 µM) in assay [1]; 16 µg/mL (≈ 67.2 µM) in the assay with S. aureus ATCC 29213. The minimal inhibitory concentration (MIC) was 8 to 16 µg/mL (≈ 33.6 to 67.2 µM) in the assay on E. faecalis ATCC 29212 (setting [4]); 64 µg/mL (≈ 269 µM) against M. smegmatis ATCC 19420; 16 to 32 µg/mL (≈ 67.2 to 134 µM) in the assay with MRSA strain Sa211c; 16 µg/mL (≈ 67.2 µM) with MRSA strain Sa249c; 16 µg/mL (≈ 67.2 µM) in the assay on MRSA strain Sa224c; 16 to 32 µg/mL (≈ 67.2 to 134 µM) with MRSA strain Sa234c. Moreover, the MIC is 32 µg/mL (≈ 134 µM) in the assay on MRSA strain Sa212c; 16 µg/mL (≈ 67.2 µM) with MRSA strain Sa248c; 16 to 32 µg/mL (≈ 67.2 to 134 µM) in the assay on MRSA strain Sa228c; 16 µg/mL (≈ 67.2 µM) with MRSA strain Sa220c; 16 µg/mL (≈ 67.2 µM) in the assay with MRSA strain Sa253c; 8 µg/mL (≈ 33.6 µM) in [2].

Source of the values: patent US7410974B2, “Halogenated Quinazolinyl nitrofurans as antibacterial agents” (Ulysses Pharmaceutical Products, Inc., priority 2003, dated 2008).
